Test results from US20240228482A1, “COMPOUNDS, COMPOSITIONS AND METHODS OF TREATING CANCER” (HOTSPOT THERAPEUTICS, INC., priority 2021, published 2024).

Target: T1, CBL-B (Homo sapiens, UniProt Q13191)
T1 construct: GST
Experiment: CBL-B TR-FRET IC50 screening (E1/E2 ubiquitination, Biotin-Ubiquitin, Anti GST-Tb donor / Streptavidin-d2 acceptor)
Assay type: biochemical
Conditions: second part of Table 2 (head 'Patent Cmpd No / Updated Activity'); same CBL-B TR-FRET IC50 bins A-F; read-out: Updated Activity

T1 sequence (Q13191 whole entry): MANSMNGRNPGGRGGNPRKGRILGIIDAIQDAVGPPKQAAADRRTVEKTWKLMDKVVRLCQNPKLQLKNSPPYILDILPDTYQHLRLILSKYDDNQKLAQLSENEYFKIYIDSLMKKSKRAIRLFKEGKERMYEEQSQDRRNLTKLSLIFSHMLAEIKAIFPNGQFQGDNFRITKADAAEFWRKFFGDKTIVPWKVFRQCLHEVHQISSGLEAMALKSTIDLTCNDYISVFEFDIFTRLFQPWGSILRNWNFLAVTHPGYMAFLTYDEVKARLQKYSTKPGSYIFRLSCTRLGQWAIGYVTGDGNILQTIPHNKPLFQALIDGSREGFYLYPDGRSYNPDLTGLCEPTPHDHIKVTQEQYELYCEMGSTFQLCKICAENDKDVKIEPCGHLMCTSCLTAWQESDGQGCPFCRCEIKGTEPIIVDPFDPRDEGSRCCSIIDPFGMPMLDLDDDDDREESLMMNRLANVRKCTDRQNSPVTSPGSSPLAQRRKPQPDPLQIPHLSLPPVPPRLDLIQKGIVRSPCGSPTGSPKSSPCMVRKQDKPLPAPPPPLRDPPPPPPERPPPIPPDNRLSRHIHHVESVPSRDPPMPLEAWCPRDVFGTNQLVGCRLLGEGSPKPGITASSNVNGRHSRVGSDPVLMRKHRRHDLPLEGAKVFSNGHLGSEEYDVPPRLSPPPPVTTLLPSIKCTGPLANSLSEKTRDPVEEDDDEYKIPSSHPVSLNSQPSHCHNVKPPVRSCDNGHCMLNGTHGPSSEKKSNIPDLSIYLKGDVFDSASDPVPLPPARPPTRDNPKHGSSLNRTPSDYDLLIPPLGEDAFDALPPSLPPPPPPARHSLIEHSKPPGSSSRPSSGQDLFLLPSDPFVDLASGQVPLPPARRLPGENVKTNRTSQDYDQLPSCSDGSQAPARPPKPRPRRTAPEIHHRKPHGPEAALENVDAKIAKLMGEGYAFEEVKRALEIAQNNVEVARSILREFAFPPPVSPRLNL

SMILES | IC50
CC(=O)N1CC[C@@H](c2cc(C(F)(F)F)c3cn(-c4cccc([C@H](c5nncn5C)C5CCC5)c4)c(=O)n3c2)C1 (single isomer, unassigned) [Compound 422] | < 0.1 µM
CCn1cnnc1[C@@H](c1cccc(-n2cc3c(C(F)(F)F)cc(CN4CCC[C@H](C)C4)cn3c2=O)c1)C1CCC1 (single isomer, unassigned) [Compound 423] | > 10 µM
C[C@H]1CCCN(Cc2cc(C(F)(F)F)c3cn(-c4cccc([C@H](c5nncn5C5CC5)C5CCC5)c4)c(=O)n3c2)C1 (single isomer, unassigned) [Compound 424] | > 10 µM
CC(C)n1cnnc1[C@@H](c1cccc(-n2cc3c(C(F)(F)F)cc(CN4CCC[C@H](C)C4)cn3c2=O)c1)C1CCC1 (single isomer, unassigned) [Compound 425] | > 10 µM
CCn1cnnc1[C@H](c1cccc(-n2cc3c(C(F)(F)F)cc(CN4CCC[C@H](C)C4)cn3c2=O)c1)C1CCC1 (single isomer, unassigned) [Compound 426] | > 10 µM
C[C@H]1CCCN(Cc2cc(C(F)(F)F)c3cn(-c4cccc([C@@H](c5nncn5C5CC5)C5CCC5)c4)c(=O)n3c2)C1 (single isomer, unassigned) [Compound 427] | > 10 µM
CC(C)n1cnnc1[C@H](c1cccc(-n2cc3c(C(F)(F)F)cc(CN4CCC[C@H](C)C4)cn3c2=O)c1)C1CCC1 (single isomer, unassigned) [Compound 428] | > 10 µM
C[C@H]1CCCN(Cc2cc(C(F)(F)F)c3cn(-c4cccc([C@H](c5nncn5C)[C@H]5C[C@H](O)C5)c4)c(=O)n3c2)C1 (single isomer, unassigned) [Compound 435] | > 10 µM
C[C@H]1CCCN(Cc2cc(C(F)(F)F)c3cn(-c4cccc([C@@H](c5nncn5C)[C@H]5C[C@@H](O)C5)c4)c(=O)n3c2)C1 (single isomer, unassigned) [Compound 436] | > 10 µM
C[C@H]1CCCN(Cc2cc(C(F)(F)F)c3cn(-c4cccc([C@H](c5nncn5C)[C@H]5C[C@@H](O)C5)c4)c(=O)n3c2)C1 (single isomer, unassigned) [Compound 437] | < 0.1 µM
C[C@H]1CCCN(Cc2cc(C(F)(F)F)c3cn(-c4cccc([C@@H](c5nncn5C)[C@H]5C[C@H](O)C5)c4)c(=O)n3c2)C1 (single isomer, unassigned) [Compound 438] | < 0.1 µM
CO[C@]1(C)C[C@](c2cccc(-n3cc4c(C(F)(F)F)cc(CN5CCC[C@H](C)C5)cn4c3=O)c2)(c2nncn2C)C1 (single isomer, unassigned) [Compound 439] | 0.1 to 0.3 µM
CO[C@]1(C)C[C@@](c2cccc(-n3cc4c(C(F)(F)F)cc(CN5CCC[C@H](C)C5)cn4c3=O)c2)(c2nncn2C)C1 (single isomer, unassigned) [Compound 440] | > 10 µM
Cn1cnnc1[C@H](c1cc(-c2ccncn2)cc(-n2cc3c(C(F)(F)F)cccn3c2=O)c1)C1CCC1 (single isomer, unassigned) [Compound 441] | > 10 µM
Cn1cnnc1[C@@H](c1cc(-c2ccncn2)cc(-n2cc3c(C(F)(F)F)cccn3c2=O)c1)C1CCC1 (single isomer, unassigned) [Compound 442] | > 10 µM
Cn1cnnc1[C@H](c1cc(-c2ccnnc2)cc(-n2cc3c(C(F)(F)F)cccn3c2=O)c1)C1CCC1 (single isomer, unassigned) [Compound 443] | > 10 µM
Cn1cnnc1[C@H](c1cc(-c2ccncc2)cc(-n2cc3c(C(F)(F)F)cccn3c2=O)c1)C1CCC1 (single isomer, unassigned) [Compound 445] | > 10 µM
Cn1cnnc1[C@@H](c1cc(-c2ccncc2)cc(-n2cc3c(C(F)(F)F)cccn3c2=O)c1)C1CCC1 (single isomer, unassigned) [Compound 446] | > 10 µM
Cn1cnnc1[C@H](c1cc(-c2cncnc2)cc(-n2cc3c(C(F)(F)F)cccn3c2=O)c1)C1CCC1 (single isomer, unassigned) [Compound 447] | > 10 µM
Cn1cnnc1[C@@H](c1cc(-c2cncnc2)cc(-n2cc3c(C(F)(F)F)cccn3c2=O)c1)C1CCC1 (single isomer, unassigned) [Compound 448] | > 10 µM
Cn1cnnc1[C@H](c1cc(C#N)cc(-n2cc3c(C(F)(F)F)cccn3c2=O)c1)C1CCC1 (single isomer, unassigned) [Compound 452] | > 10 µM
Cn1cnnc1[C@@H](c1cc(C#N)cc(-n2cc3c(C(F)(F)F)cccn3c2=O)c1)C1CCC1 (single isomer, unassigned) [Compound 453] | 0.301 to 1 µM
Cn1cnnc1[C@H](c1cc(-c2cnoc2)cc(-n2cc3c(C(F)(F)F)cccn3c2=O)c1)C1CCC1 (single isomer, unassigned) [Compound 454] | 1 to 3 µM
Cn1cnnc1[C@@H](c1cc(-c2cnoc2)cc(-n2cc3c(C(F)(F)F)cccn3c2=O)c1)C1CCC1 (single isomer, unassigned) [Compound 455] | > 10 µM
Cn1cnnc1[C@H](c1cc(-c2cnsc2)cc(-n2cc3c(C(F)(F)F)cccn3c2=O)c1)C1CCC1 (single isomer, unassigned) [Compound 456] | > 10 µM

SMILES | IC50
Cn1cnnc1[C@@H](c1cc(-c2cnsc2)cc(-n2cc3c(C(F)(F)F)cccn3c2=O)c1)C1CCC1 (single isomer, unassigned) [Compound 457] | > 10 µM
Cn1cnnc1[C@H](c1cc(-c2ccns2)cc(-n2cc3c(C(F)(F)F)cccn3c2=O)c1)C1CCC1 (single isomer, unassigned) [Compound 458] | 3 to 10 µM
Cn1cnnc1[C@@H](c1cc(-c2ccns2)cc(-n2cc3c(C(F)(F)F)cccn3c2=O)c1)C1CCC1 (single isomer, unassigned) [Compound 459] | > 10 µM
Cn1cnnc1[C@H](c1cc(-c2ccsn2)cc(-n2cc3c(C(F)(F)F)cccn3c2=O)c1)C1CCC1 (single isomer, unassigned) [Compound 460] | > 10 µM
Cn1cnnc1[C@@H](c1cc(-c2ccsn2)cc(-n2cc3c(C(F)(F)F)cccn3c2=O)c1)C1CCC1 (single isomer, unassigned) [Compound 461] | > 10 µM
C[C@H]1CCCN(Cc2cc(C(F)(F)F)c3cn(-c4cccc([C@H](c5nncn5C(F)F)C5CCC5)c4)c(=O)n3c2)C1 (single isomer, unassigned) [Compound 462] | > 10 µM
C[C@H]1CCCN(Cc2cc(C(F)(F)F)c3cn(-c4cccc([C@@H](c5nncn5C(F)F)C5CCC5)c4)c(=O)n3c2)C1 (single isomer, unassigned) [Compound 463] | > 10 µM
C[C@@H]1CN(Cc2cc(C(F)(F)F)c3cn(-c4cccc(C5(c6nncn6C)CC6(CC6)C5)c4)c(=O)n3c2)CCC1(F)F (single isomer, unassigned) [Compound 464] | < 0.1 µM
C[C@H]1CN(Cc2cc(C(F)(F)F)c3cn(-c4cccc(C5(c6nncn6C)CC6(CC6)C5)c4)c(=O)n3c2)CCC1(F)F (single isomer, unassigned) [Compound 465] | < 0.1 µM
C[C@H]1CCCN(Cc2cc(C(F)(F)F)c3cn(-c4cccc([C@H](c5nncn5C)C5(O)CCC5)c4)c(=O)n3c2)C1 (single isomer, unassigned) [Compound 474] | < 0.1 µM
C[C@H]1CCCN(Cc2cc(C(F)(F)F)c3cn(-c4cccc([C@@H](c5nncn5C)C5(O)CCC5)c4)c(=O)n3c2)C1 (single isomer, unassigned) [Compound 475] | 3 to 10 µM
C[C@H]1CCCN(Cc2cc(C(F)(F)F)c3cn(-c4cc(F)cc([C@H](c5nncn5C)C5COC5)c4)c(=O)n3c2)C1 (single isomer, unassigned) [Compound 476] | 0.301 to 1 µM
C[C@H]1CCCN(Cc2cc(C(F)(F)F)c3cn(-c4cc(F)cc([C@@H](c5nncn5C)C5COC5)c4)c(=O)n3c2)C1 (single isomer, unassigned) [Compound 477] | < 0.1 µM
CC(=O)NCc1cc([C@@H](c2nncn2C)C2CCC2)cc(-n2cc3c(C(F)(F)F)cccn3c2=O)c1 (single isomer, unassigned) [Compound 478] | > 10 µM
CC(=O)NCc1cc([C@H](c2nncn2C)C2CCC2)cc(-n2cc3c(C(F)(F)F)cccn3c2=O)c1 (single isomer, unassigned) [Compound 479] | 3 to 10 µM
Cn1cnnc1C1(c2cccc(-n3cc4c(C(F)(F)F)cc(CN5CCC[C@H](C(F)(F)F)C5)cn4c3=O)c2)CC2(CC2)C1 (single isomer, unassigned) [Compound 480] | < 0.1 µM
Cn1cnnc1C1(c2cccc(-n3cc4c(C(F)(F)F)cc(CN5CCC[C@@H](C(F)(F)F)C5)cn4c3=O)c2)CC2(CC2)C1 (single isomer, unassigned) [Compound 481] | < 0.1 µM
C[C@H](c1cc(C(F)(F)F)c2cn(-c3cccc([C@H](c4nncn4C)C4CCC4)c3)c(=O)n2c1)N1CC[C@H](F)C1 (single isomer, unassigned) [Compound 485] | < 0.1 µM
C[C@@H](c1cc(C(F)(F)F)c2cn(-c3cccc([C@H](c4nncn4C)C4CCC4)c3)c(=O)n2c1)N1CC[C@H](F)C1 (single isomer, unassigned) [Compound 486] | < 0.1 µM
COC[C@H]1C[C@@H]([C@@H](c2cccc(-n3cc4c(C(F)(F)F)cc(CN5CCC[C@H](C)C5)cn4c3=O)c2)c2nncn2C)C1 (single isomer, unassigned) [Compound 492] | > 10 µM
COC[C@H]1C[C@H]([C@H](c2cccc(-n3cc4c(C(F)(F)F)cc(CN5CCC[C@H](C)C5)cn4c3=O)c2)c2nncn2C)C1 (single isomer, unassigned) [Compound 493] | > 10 µM
COC[C@H]1C[C@H]([C@@H](c2cccc(-n3cc4c(C(F)(F)F)cc(CN5CCC[C@H](C)C5)cn4c3=O)c2)c2nncn2C)C1 (single isomer, unassigned) [Compound 494] | < 0.1 µM
COC[C@H]1C[C@@H]([C@H](c2cccc(-n3cc4c(C(F)(F)F)cc(CN5CCC[C@H](C)C5)cn4c3=O)c2)c2nncn2C)C1 (single isomer, unassigned) [Compound 495] | 0.1 to 0.3 µM
Cn1cnnc1[C@@H](c1cc(C#N)cc(-n2cc3c(C(F)(F)F)cc(CN4CCC5(CC5)C4)cn3c2=O)c1)C1CCC1 (single isomer, unassigned) [Compound 496] | > 10 µM
